These results are taken from paper PMC6788984, “High-potency ligands for DREADD imaging and activation in rodents and monkeys” (Nature Communications, 2019).

Data set [1] concerns the target T1, hM3Dq (Homo sapiens, UniProt P20309, A239G/Y149C). Briefly: Intracellular Ca2+ assay (GCaMP6f) in HEK-293 cells transfected with hM3Dq. The note with it: for hM3Dq activation, concentration-response points: replicates; for EC50: fluorescent assay in HEK-293 cells. Details: host or cells: HEK-293. Type of data set: cell-based. As for the experimental part:
(§1) The indicated amount of cDNA was transfected into HEK-293 cells using polyethylenimine (PEI; Sigma-Aldrich) in a 1–2 DNA:PEI ratio. Cell harvesting for radioligand binding experiments or signaling assays were performed approximately 48 h after transfection.
Intracellular Ca^2+ concentration was monitored using the fluorescent Ca^2+ biosensor GCaMP6f. […] The net change in intracellular Ca^2+ concentration was expressed as F − F0 where F is the fluorescence at a given concentration of ligand and F0 is the average of the baseline values (fluorescence values of buffer-treated wells).

Data set [2] concerns the target T1, hM3Dq. Kind of data set: [3H]clozapine competition binding, membranes of HEK-293 cells expressing hM3Dq.
Procedure: Cells were routinely tested for myclopasma contamination (MycoAlert® Mycoplasma Detection Kit, Lonza). Cells were seeded on 60 cm^2 dishes at 4 × 10^6 cells/dish 24 h before transfection. The indicated amount of cDNA was transfected into HEK-293 cells using polyethylenimine (PEI; Sigma-Aldrich) in a 1–2 DNA:PEI ratio. Cell harvesting for radioligand binding experiments or signaling assays were performed approximately 48 h after transfection.
Cells were suspended in Tris-HCl 50 mM pH 7.4 supplemented with protease inhibitor cocktail (1:100, Sigma-Aldrich, St. Louis, MO, USA). The dissected brain tissue was diluted in Tris-HCl 50 mM buffer supplemented with protease inhibitor cocktail (1:1000). HEK-293 cells or brain tissue were disrupted with a Polytron homogenizer (Kinematica, Basel, Switzerland). Homogenates were centrifuged at 48,000g (50 min, 4 °C) and washed twice in the same conditions to isolate the membrane fraction. Protein was quantified by the bicinchoninic acid method (Pierce). […] In all cases, free and membrane-bound radioligand were separated by rapid filtration of 500-μl aliquots in a 96-well plate harvester (Brandel, Gaithersburg, MD, USA) and washed with 2 ml of ice-cold Tris-HCl buffer. […] One-site competition curves were fitted using Prism 7 (GraphPad Software, La Jolla, CA, USA). Ki values were calculated using the Cheng–Prusoff equation.
The target in another data set is T2, hM4Di (Homo sapiens, UniProt P08173, A203G/Y113C).
T2 sequence (P08173 1-479 Y113C/A203G): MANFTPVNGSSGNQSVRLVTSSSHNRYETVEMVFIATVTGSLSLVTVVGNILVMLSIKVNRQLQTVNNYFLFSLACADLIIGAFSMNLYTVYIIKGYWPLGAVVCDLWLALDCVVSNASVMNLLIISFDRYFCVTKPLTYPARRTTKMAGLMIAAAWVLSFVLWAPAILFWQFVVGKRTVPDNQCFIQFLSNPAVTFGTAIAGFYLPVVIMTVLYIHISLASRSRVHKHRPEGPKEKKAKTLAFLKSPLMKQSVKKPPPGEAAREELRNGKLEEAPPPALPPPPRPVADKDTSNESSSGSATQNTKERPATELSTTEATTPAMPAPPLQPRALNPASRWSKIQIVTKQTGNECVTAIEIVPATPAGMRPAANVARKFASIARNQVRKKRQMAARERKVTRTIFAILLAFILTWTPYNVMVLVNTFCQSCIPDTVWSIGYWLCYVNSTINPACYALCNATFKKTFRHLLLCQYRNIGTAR
Kind of data set: BRET Galpha-o1 protein activation assay in HEK-293 cells transfected with hM4Di. It counts as cell-based. Also noted: host or cells: HEK-293. The note with it: for hM4Di activation, concentration-response points: replicates; for EC50: BRET-based assay in HEK-293 cells. As for the experimental part: as §1
BRET assays were performed to detect receptor ligand-induced Gαo1 protein activation. […] Forty-eight hour after transfection cells were harvested, washed and resuspended in phosphate-buffered saline (PBS). Approximately, 200,000 cells/well were distributed in 96-well plates, and 5 µM Coelenterazine H (substrate for luciferase) was added to each well. Five minutes after addition of Coelenterazine H, ligands were added to each well. […] Results were calculated for the BRET change (BRET ratio for the corresponding drug minus BRET ratio in the absence of the drug) 5 min after the addition of the ligands.

The nature of data set [3]: Brain and serum concentrations in mice after IP injection (LC-MS/MS). Type of data set: in vivo, mouse. The note with it: for brain/serum concentration ratio: 1 mg kg-1 IP; for Kp: C57BL/6J, mouse, brain/serum, ip, 0.1 mg kg-1, mice, read-out: brain/serum concentration ratio; for Kp / brain to serum concentration ratio / brain concentration, mean / serum concentration, mean: 0.1 mg kg-1 IP; for brain to serum concentration ratio: 30 min. As to the method: Monkey blood and CSF samples were collected from totally implanted subcutaneous access ports (Access Technologies, Virginia), connected to catheters indwelling in the femoral artery or intrathecal space of the spinal column, respectively. Rodent blood samples and brains were collected immediately following sacrifice at the indicated time points after intraperitoneal injection (10 ml kg^−1) in buffered saline. CSF was immediately frozen on dry ice and stored at −80 °C. Blood samples were allowed to coagulate for 15 min and then centrifuged at 4 °C for 15 min. Serum was collected from the supernatant and stored at a minimum of −30 °C until extraction. To 25 µl of serum, 5 µl of internal standard and 110 µl of methanol were added. Samples were centrifuged for 10 min at 16,200×g at 4 °C and the supernatant was transferred to the autosampler vial for analysis. Brains were cut in half and weighed prior to sample preparation. Half brains were homogenized in 490 µl of 85% ethanol: 15% water containing 0.1% formic acid and 5 µl of internal standard using a polytron homogenizer and centrifuged for 10 min at 16,200×g at 4 °C. A 300 µl of supernatant was dried under a stream of nitrogen and resuspended in 150 µl methanol. The resuspended solution was then centrifuged and 100 µl of supernatant was transferred to the autosampler vial for analysis.
Data were acquired using a Nexera XR HPLC (Shimadzu) coupled with a QTRAP 6500 (SCIEX), and was analyzed with Analyst 1.6 (SCIEX). The positive-ion mode data were obtained using multiple reaction monitoring (MRM). The instrumental source setting for curtain gas, ion spray voltage, temperature, ion source gas 1, and ion source gas 2 were 30 psi, 5500 V, 500 C, […], respectively.
Mobile phase A consisted of water containing 0.1% formic acid and mobile phase B was methanol containing 0.1% formic acid. […] The injection volume per sample was 10 μl. Samples were kept at 4 °C in the autosampler tray prior to injection.
The data were measured using standard curves and quality controls, but it was not validated to ICH guidelines. […] Quality control standards (low, middle and high) were prepared by adding the spiking standard to solution to 25 μl of serum and/or a half-brain and relative values are reported.

“And” between values parts separate entries of the source, which are not always exact repeats. Equal entries are not always repeated. Where two headings read alike, the source gives them in different places.

T1 sequence (P20309 whole entry Y149C/A239G): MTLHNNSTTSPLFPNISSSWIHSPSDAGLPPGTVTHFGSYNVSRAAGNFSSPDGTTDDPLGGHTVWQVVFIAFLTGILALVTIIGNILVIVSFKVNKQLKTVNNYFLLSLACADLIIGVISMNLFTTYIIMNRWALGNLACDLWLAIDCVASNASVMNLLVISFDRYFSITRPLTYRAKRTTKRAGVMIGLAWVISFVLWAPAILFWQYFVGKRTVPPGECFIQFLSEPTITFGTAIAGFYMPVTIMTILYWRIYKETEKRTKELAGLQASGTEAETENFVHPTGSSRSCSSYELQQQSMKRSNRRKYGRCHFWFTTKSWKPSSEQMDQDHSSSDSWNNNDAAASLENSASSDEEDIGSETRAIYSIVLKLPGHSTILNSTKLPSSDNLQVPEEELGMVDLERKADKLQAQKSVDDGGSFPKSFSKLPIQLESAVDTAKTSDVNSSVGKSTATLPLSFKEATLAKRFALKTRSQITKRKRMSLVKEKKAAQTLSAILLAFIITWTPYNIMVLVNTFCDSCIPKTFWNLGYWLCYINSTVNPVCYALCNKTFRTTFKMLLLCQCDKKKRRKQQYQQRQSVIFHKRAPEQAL

On to `c1ccc2c(c1)N=C(N1CCNCC1)c1ccccc1N2` [C21], for which the “hM3Dq activation, concentration-response points” value was 93.1143 and 77.3513 and 111.083 at hM3Dq [1] (Log [compound] -5); 96.4744 and 82.7674 and 98.8645 on hM3Dq [1] (Log [compound] -6); 74.044 and 103.149 and 78.6539 at hM3Dq [1] (Log [compound] -7); 83.0838 and 91.1589 and 81.1662 at hM3Dq [1] (Log [compound] -8); 6.817 and 0.07299 and 9.557 at hM3Dq [1] (Log [compound] -9); -3.555 and -5.9944 and 2.166 at hM3Dq [1] (Log [compound] -10). Further, the “hM3Dq activation, concentration-response points” value is -13.1516 and -2.046 and 1.55 on hM3Dq [1] (Log [compound] -11); -8.693 and -2.2785 and 8.813 at hM3Dq [1] (Log [compound] -12). The “hM3Dq-mediated intracellular Ca2+ increases” value on hM3Dq [1] (transfected HEK-293 cells) is “potent intracellular Ca^2+ increases comparable to that of clozapine”. Moreover, at hM3Dq [2] (DREADDs in HEK-293 cells), the “less affinity than CLZ” value worked out at 100 fold. Besides, the Ki on hM3Dq [2] (read-out: affinity (approximate, for equipotent concentrations), DREADD not specified) is around 200 nM; on hM3Dq [2] (read-out: hM3Dq Ki) it was 230 nM. Further, the “hM4Di activation, concentration-response points” value on hM4Di (Log [compound] -4) was 96.8817; on hM4Di (Log [compound] -4.5) it was 116.397; on hM4Di (Log [compound] -5) it was 108.743 and 111.119 and 118.355; at hM4Di (Log [compound] -6), 104.765 and 108.926 and 107.08; on hM4Di (Log [compound] -7) it was 91.0167 and 106.137 and 98.8868; on hM4Di (Log [compound] -8), 65.4069 and 99.8095 and 89.0469. Moreover, the “hM4Di activation, concentration-response points” value was 48.391 and 67.2323 and 60.3348 at hM4Di (Log [compound] -9); 22.6996 and 44.1322 and 29.3744 at hM4Di (Log [compound] -10); 8.666 on hM4Di (Log [compound] -12); 7.3972 and 3.296 and 3.683 at hM4Di (Log [compound] -15). On hM4Di (cells or tissue expressing hM4Di), the “Gi/o activation, potency relative to clozapine” value is recorded as “less potent than clozapine”. Moreover, the brain/serum concentration ratio in data set [3] (mice, time 10) amounted to 0.1059; in data set [3] (mice, time 30), 0.2543; in data set [3] (mice, time 60), 0.2987; in data set [3] (mice, time 120), 0.4106; in data set [3] (mice, time 240), 0.6284. Moreover, the brain/serum ratio entry in data set [3] (mice, systemic administration) is “low brain/serum ratios”.
The term EC50 denotes the concentration giving half of the maximal effect. A lower EC50 goes with an effect from little substance. Turning to `CCN1CCN(C2=Nc3cc(Cl)ccc3Nc3cccc(F)c32)CC1` [JHU37152, 8-Chloro-11-(4-ethylpiperazin-1-yl)-1-fluoro-5H-dibenzo[b,e][1,4]diazepine], the EC50 at hM3Dq [1] came out at 5 nM; at hM4Di, 0.5 nM. Moreover, the Ki at hM3Dq [2] stood at 1.8 nM. The Kp in data set [3] (time 10) is 3.52; in data set [3] (time 30), 6.76; in data set [3] (time 60), 5.99; in data set [3] (time 120), 4.52; in data set [3] (time 240), 3.05. Besides, the “brain to serum concentration ratio” value in data set [3] (mice) is “~eightfold higher in the brain than serum”. The “brain concentration, mean” value is reported as 58.5075 in data set [3] (mice, time 10); 52.9484 in data set [3] (mice, time 30); 40.9216 in data set [3] (mice, time 60); 7.985 in data set [3] (mice, time 120); 2.907 in data set [3] (mice, time 240). Also, the “serum concentration, mean” value in data set [3] (mice, time 10) amounted to 16.6091; in data set [3] (mice, time 30) it was 6.63; in data set [3] (mice, time 60), 6.9214; in data set [3] (mice, time 120), 2.387; in data set [3] (mice, time 240) it was 1.533.
`CCN1CCN(C2=Nc3cc(Cl)ccc3Nc3c(F)cccc32)CC1` [JHU37160, 8-Chloro-11-(4-ethylpiperazin-1-yl)-4-fluoro-5H-dibenzo[b,e][1,4]diazepine]: the values for the half-maximal effective concentration (EC50) on hM3Dq [1] and at hM4Di were 18.5 nM and 0.2 nM, respectively. Besides, the Ki on hM3Dq [2] was 1.9 nM. Further, the Kp in data set [3] (time 10) came to 6.45; in data set [3] (time 30), 8.48; in data set [3] (time 60), 12.9; in data set [3] (time 120), 9.72; in data set [3] (time 240) it was 15.4. Besides, the “brain to serum concentration ratio” value in data set [3] (mice) was “~eightfold higher in the brain than serum”. The “brain concentration, mean” value in data set [3] (mice, time 10) is given as 15.2721; in data set [3] (mice, time 30) it was 9.242; in data set [3] (mice, time 60), 8.73; in data set [3] (mice, time 120), 8.1596; in data set [3] (mice, time 240) it was 3.199. In addition, the “serum concentration, mean” value is listed as 2.637 in data set [3] (mice, time 10); 1.58 in data set [3] (mice, time 30); 0.7534 in data set [3] (mice, time 60); 0.8413 in data set [3] (mice, time 120); 0.319 in data set [3] (mice, time 240).
